Data: patent US8318657B2, “Methods and compositions for preventing and/or treating pancreatitis” (Flinders Technologies Pty Ltd., priority 2005, dated 2012)
Entries after “also recorded” stand apart in the source; their conditions may differ.

What was measured:
[1] = test system: possum model of acute pancreatitis (AP); assay: Possum model of acute pancreatitis (pancreatic duct ligation + CCK/secretin) with galanin or galantide; format: in vivo, Australian Brush-tailed possums (Trichosurus vulpecula); conditions: for plasma amylase activity / plasma lipase activity / pancreatic vascular perfusion (PVP) / pancreatic oedema: possum AP; for pancreatic oedema: pancreas harvested 8 hours post-AP induction, H&E, point counting, treatment from 15 minutes prior to AP induction, decrease of AP-induced oedema
[2] = test system: basal pancreatic exocrine secretion; assay: Basal pancreatic exocrine secretion in anaesthetised possums; format: in vivo, Australian Brush-tailed possums (Trichosurus vulpecula); conditions: galanin 0.5 or galantide 1.5 nmol/kg bolus then 2 nmol/kg/h i.v., preliminary study
Description: The possums were anaesthetized as described above. The left femoral vein was cannulated with two cannulae (1.05 mm OD, 0.35 ID) for administration of anaesthetic drugs and normal saline. […] A midline laparotomy was then performed. With minimal handling of tissues, the duodenum with the sphincter of Oddi was placed on a platform and stabilised with pins. The pancreatic duct component of the sphincter of Oddi was identified with the aid of a dissecting microscope and opened with micro-scissors. It was then cannulated (1.5 mm OD, 0.9 mm ID) advanced 4-5 mm and ligated with 5-0 prolene suture. This cannula was left open to collect pancreatic juice. After an initial stabilization period of 15 minutes, the pancreatic juice was collected every 30 minutes for 3.5 hours.
(§1) The quantity of pancreatic exocrine secretion was estimated gravimetrically (basal secretion and stimulated secretion).

[3] = test system: hyperstimulated pancreatic exocrine secretion; assay: Hyperstimulated (CCK/secretin) pancreatic exocrine secretion in anaesthetised possums; format: in vivo, Australian Brush-tailed possums (Trichosurus vulpecula); conditions: CCK/secretin 5 ug/kg of each/hour i.v., galanin 0.5 or galantide 1.5 nmol/kg bolus then 2 nmol/kg/h, decrease of elevated volume, preliminary study
Description: The experimental setup was similar to as described above. In the control group after an initial stabilization period of 15 minutes, the pancreatic juice was collected at half hourly intervals for one hour. This established the basal secretion rate. Then a mixture of cholecystokinin and secretin (CCK-SEC) was infused i.v at 5 μg (of each peptide)/kg/hr for the entire duration of the experiment.
The galanin or galantide infusion was continued for one and a half hour and then stopped. The CCK-SEC infusion was further continued for one hour. During the entire course of experiment, pancreatic juice was collected at half hourly intervals.
as §1

[4] = test system: caerulein-induced acute pancreatitis (AP) in mice; assay: Caerulein-induced acute pancreatitis in mice (mild model, 7 hourly i.p. injections) with galanin or galanin antagonists; format: in vivo, mouse (female Balb C or Swiss); conditions: for pancreatic acinar cell necrosis score: histology scoring system
[5] = test system: mice without acute pancreatitis; assay: Control groups: mice given galanin or galanin antagonist alone (saline, no caerulein); conditions: mice without AP
[6] = GT 1.5 nmol/kg bolus then 2 nmol/kg/h i.v., delayed: initiated 2 hours post-AP induction
[7] = GT 1.5 nmol/kg bolus then 2 nmol/kg/h i.v., delayed: initiated 2 hours post-AP induction, listed as GT
[8] = i.v. bolus (GL 0.5, GT 1.5 nmol/kg) then 2 nmol/kg/h continuous infusion, initiated 15 minutes prior to AP induction, effect on AP-induced rise
[9] = i.v. bolus (GL 0.5, GT 1.5 nmol/kg) then 2 nmol/kg/h continuous infusion, initiated 15 minutes prior to AP induction, effect on AP-induced rise, listed as GT
[10] = mouse caerulein AP, 20 nmol/kg i.p. with each caerulein injection, reduction of AP-induced level
[11] = mouse caerulein AP, 40 nmol/kg i.p. with each caerulein injection, reduction of AP-induced level
[12] = mouse caerulein AP, GT 40 nmol/kg, treatment delayed for 2 hours post-AP induction

CSCC[C@H](NC(=O)[C@H](CC(C)C)NC(=O)CNC(=O)[C@H](Cc1ccccc1)NC(=O)[C@H](Cc1ccccc1)NC(=O)[C@H](CCC(N)=O)NC(=O)[C@H](CCC(N)=O)NC(=O)[C@@H]1CCCN1C(=O)CNC(=O)[C@H](CC(C)C)NC(=O)[C@H](CC(C)C)NC(=O)[C@H](Cc1ccc(O)cc1)NC(=O)CNC(=O)[C@H](C)NC(=O)[C@H](CO)NC(=O)[C@H](CC(N)=O)NC(=O)[C@H](CC(C)C)NC(=O)[C@@H](NC(=O)[C@H](Cc1c[nH]c2ccccc12)NC(=O)CN)[C@@H](C)O)C(N)=O [Galantide, Galanin(1-13)-substance P(5-11) amide]
plasma amylase activity [1, 6]: reduces plasma amylase and lipase secretion
plasma lipase activity [1, 6]: reduces plasma amylase and lipase secretion
plasma amylase activity [1, 7]: reduced the AP-induced rise in plasma amylase activity
plasma lipase activity [1, 7]: suppressed the AP-induced rise in plasma lipase activity
pancreatic vascular perfusion (PVP) ([1]; i.v. bolus (GL 0.5, GT 1.5 nmol/kg) then 2 nmol/kg/h continuous infusion, initiated 15 minutes prior to AP induction): increases PVP from the outset
plasma amylase activity [1, 8]: completed prevented the pancreatitis-induced increase in plasma amylase
plasma lipase activity [1, 8]: markedly depressed the pancreatitis-induced increase in plasma lipase
plasma amylase activity [1, 9]: completely suppressed the AP-induced rise in plasma amylase activity
plasma lipase activity [1, 9]: markedly suppressed the AP-induced rise in plasma lipase activity
pancreatic vascular perfusion (PVP) ([1]; i.v. bolus (GL 0.5, GT 1.5 nmol/kg) then 2 nmol/kg/h continuous infusion, initiated 15 minutes prior to AP induction, listed as GT): sustained fall in PVP
pancreatic oedema [1]: reduced
pancreatic oedema ([1]; listed as GT): significantly decreased
severity of pancreatitis (summary) ([1]; possums, administration prior to the onset and also after onset of acute pancreatitis): reduces the severity of pancreatitis
basal rate of pancreatic exocrine secretion (volume) [2]: does not influence basal exocrine secretion (volume)
hyperstimulated pancreatic exocrine secretion (volume of pancreatic juice) [3]: does reduce hyper-stimulated exocrine secretion
hyperstimulated pancreatic exocrine secretion (volume of pancreatic juice) ([3]; listed as galantide): decreased
pancreatic myeloperoxidase (MPO) activity ([4]; mouse caerulein AP, 10 nmol/kg i.p. with each caerulein injection, reduction of AP-induced level, listed as GT): also effective; also recorded: significantly reduced
pancreatic tissue architecture / AP-induced pancreatic damage (histological sections) ([4]; mouse caerulein AP, 20 nmol/kg): reduced the acute pancreatitis-induced pancreatic damage
pancreatic myeloperoxidase (MPO) activity [4, 10]: significantly reduced
plasma amylase activity [4, 10]: reduced the plasma amylase level
plasma lipase activity [4, 10]: significantly reduced
plasma amylase activity ([4]; mouse caerulein AP, 20 nmol/kg i.p. with each caerulein injection, reduction of AP-induced level, listed as GT): significantly reduced
pancreatic acinar cell necrosis score ([4]; mouse caerulein AP, 20 nmol/kg): reduced the pancreatitis-induced necrosis
pancreatic acinar cell necrosis score ([4]; mouse caerulein AP, 20 nmol/kg, listed as GT): significantly reduced the necrosis score
histology score (pancreatic tissue damage) ([4]; mouse caerulein AP, 20 nmol/kg, scoring system): significantly reduced the histology score
plasma amylase activity [4, 11]: reduced the plasma amylase level
plasma lipase activity [4, 11]: significantly reduced
plasma amylase activity ([4]; mouse caerulein AP, 40 nmol/kg i.p. with each caerulein injection, reduction of AP-induced level, listed as GT): significantly reduced
pancreatic myeloperoxidase (MPO) activity ([4]; mouse caerulein AP, 40 nmol/kg i.p. with each caerulein injection, vs AP alone): significantly reduced
plasma amylase activity [4, 12]: significantly reduced
plasma lipase activity [4, 12]: significantly reduced
pancreatitis-induced plasma hyperenzymemia ([4]; mouse caerulein AP, galantide administered 2 hours post pancreatitis onset, preliminary results): reduces the pancreatitis-induced plasma hyperenzymemia
severity of pancreatitis (summary) ([4]; mouse pancreatitis studies): has the ability to reduce the severity of pancreatitis
pancreatic myeloperoxidase (MPO) activity ([5]; 20 nmol/kg alone): did induce a low level of pancreatic MPO
pancreatic tissue architecture (histological sections) ([5]; 20 nmol/kg alone): near normal pancreatic architecture
plasma amylase activity ([5]; 20 nmol/kg alone, vs baseline): did not increase plasma amylase activity above baseline activity
plasma lipase activity ([5]; 20 nmol/kg alone, vs baseline): did not increase plasma lipase activity above baseline activity
pancreatic myeloperoxidase (MPO) activity ([5]; 40 nmol/kg alone): did induce a low level of pancreatic MPO
